Source: patent publication US20130316990A1, “USE OF VITAMIN D COMPOUNDS” (DSM IP ASSETS B.V., priority 2003, published 2013)
Marks after values point to notes of the source that are not given here.

Tests used:
[1] = tested on: growing-fattening pigs; assay: Bone strength (Newton at the breaking point) in growing-fattening pigs fed supplemented diet, Example 1; format: in vivo; details: for Strength - metacarpals and metatarsals, relative to group A (100) / Strength - metacarpals, relative to group A (100) / Strength - metatarsals, relative to group A (100): unmedicated basal diet = 100; for Strength - metacarpals / Strength - metatarsals: mean ± SD of 8 determinations; for Strength - metacarpals and metatarsals: mean ± SD of 16 determinations
Experimental: Growing-fattening pigs of an initial body weight of 64.8±5.03 kg were fed a diet based on maize, barley and soybean meal ad libitum for 34 days. Groups of 16 animals each were fed as follows:
A: basal diet (unmedicated),
B: basal diet+1,200 IU/kg vitamin D3
C: basal diet+30 μg/kg 25-hydroxy vitamin D3 (Hy.D® 1.25% Beadlet, Roche Vitamins AG, Basel, Switzerland)
D: basal diet+600 IU/kg vitamin D3+15 μg/kg 25-hydroxy vitamin D3 (Hy.D® 1.25% Beadlet, Roche Vitamins AG, Basel, Switzerland).
(§1) The effects of the addition of 25-hydroxy vitamin D3 and vitamin D3 to the diet were determined by measuring the strength (Newton at the breaking point) of the bones of the animals.

[2] = tested on: weaner piglets; assay: Bone strength (Newton at the breaking point) in weaner piglets fed supplemented diet, Example 2; format: in vivo; details: for Strength - femur: mean ± SD of 8 determinations
Experimental: Weaner piglets of an initial body weight of 8.4±1.2 kg were fed a diet based on maize, barley and soybean meal ad libitum for 33 days. Groups of 31 animals each were fed as follows:
A: basal diet+1,000 IU/kg vitamin D3
B: basal diet+2,000 IU/kg vitamin D3
C: basal diet +40 μg/kg 25-hydroxy vitamin D3 (Hy.D® 1.25% Beadlet, Roche Vitamins AG, Basel, Switzerland)
D: basal diet+1,000 IU/kg vitamin D3+20 μg/kg 25-hydroxy vitamin D3 (Hy. D® 1.25% Beadlet, Roche Vitamins AG, Basel, Switzerland).
as §1

[3] = group B: 1,200 IU/kg vitamin D3, 34 days
[4] = group B: basal diet+1,200 IU/kg vitamin D3, 34 days
[5] = group C: 30 μg/kg 25-hydroxy vitamin D3, 34 days
[6] = group C: basal diet+30 μg/kg 25-hydroxy vitamin D3, 34 days

Structure (SMILES) | Strength - metacarpals and metatarsals, relative to group A (100) [1, 3] | Strength - metacarpals, relative to group A (100) [1, 3] | Strength - metatarsals, relative to group A (100) [1, 3] | Strength - metacarpals [1, 4] | Strength - metatarsals [1, 4] [Newton] | Strength - metacarpals and metatarsals [1, 4] | Strength - femur, relative to group A (100) ([2]; group A: 1,000 IU/kg vitamin D3, 33 days, reference group = 100) | Strength - femur, relative to group A (100) ([2]; group B: 2,000 IU/kg vitamin D3, 33 days, 1,000 IU/kg vitamin D3 group = 100) | Strength - femur ([2]; group B: basal diet+2,000 IU/kg vitamin D3, 33 days) | strength of the bones of the growing-finishing pig (in words) ([1]; Example 1, addition to diet, 34 days) | Strength - metacarpals and metatarsals, relative to group A (100) [1, 5] | Strength - metacarpals, relative to group A (100) [1, 5] | Strength - metatarsals, relative to group A (100) [1, 5] | Strength - metacarpals ([1]; group C: basal diet+30 μg/kg 25-hydroxy vitamin D3 (Hy.D 1.25% Beadlet), 34 days) | Strength - metatarsals [1, 6] [Newton] | Strength - metacarpals and metatarsals [1, 6] | Strength - femur, relative to group A (100) ([2]; group C: 40 μg/kg 25-hydroxy vitamin D3, 33 days, 1,000 IU/kg vitamin D3 group = 100) | Strength - femur ([2]; group C: basal diet+40 μg/kg 25-hydroxy vitamin D3 (Hy.D 1.25% Beadlet), 33 days)
C=C1CC[C@H](O)C/C1=C/C=C1\CCC[C@]2(C)[C@@H]([C@H](C)CCCC(C)C)CC[C@@H]12 [vitamin D3] | (107) | (109) | (105) | 463 ± 48^ce Newton | 553 ± 169 | 508 ± 113^ac Newton | (100) | (109) | 873 ± 123^ab Newton | – | – | – | – | – | – | – | – | –
C=C1CC[C@H](O)C/C1=C/C=C1\CCC[C@]2(C)[C@@H]([C@H](C)CCCC(C)(C)O)CC[C@@H]12 [25-hydroxy vitamin D3] | – | – | – | – | – | – | – | – | – | clearly improved | (112) | (123) | (103) | 520 ± 72^df Newton | 545 ± 105 | 533 ± 88^ac Newton | (100) | 803 ± 82^a Newton
